{"source": "patent US4469689A", "about": "“Sulfonate containing ester prodrugs of corticosteroids” (The Upjohn Company, priority 1983, dated 1984)", "key": {"mice": {"test_system": "mice", "conditions": "M. Kawamura et al., Yakugaku Zasshi, 91, 871 (1971); cited from earlier work"}, "[1]": {"assay": "hydrolysis of dilute aqueous solutions, t90% estimated from hydrolysis rate constants at 25° C. (Table I)", "format": "physicochemical", "conditions": "pH 4.75 (pH of optimum stability), dilute aqueous solution", "method": "From the hydrolysis rate constants determined at 25° C. at various pH vlaues for dilute aqueous solutions of the compounds of the invention, estimates of t90% (time for 10% hydrolysis) may be calculated."}, "[2]": {"assay": "base catalyzed hydrolysis rate in concentrated versus dilute solution", "format": "physicochemical", "conditions": "0.267 M vs 5×10^-4 M", "excerpt": "The actual shelf-life of formulations of the above compounds would be expected to differ fom the above estimates for two reasons: (1) The solubility of the parent corticosteroid formed on hydrolysis may be exceeded prior to 10% degradation of the ester. Micelle formation by the intact prodrugs of Formula I results in solubilization of free corticosteroid thereby prolonging shelf-life. The degree of solubilization varies with the ester concentration, nature of the pro-moiety, and the structure of the corticosteroid. (2) Micelle formation by the intact prodrug in concentrated solutions results in stabilization of the ester linkage toward base catalyzed hydrolysis. For example, the base catalyzed hydrolysis rate in a 0.267 M solution of the compound of Example 1 is less than one-seventh the rate in a 5×10^-4 M solution."}, "[3]": {"conditions": "background statement; cited from earlier work"}}, "note": "Where a name gives a salt, the structure may show the parent alone."}
{"smiles": "C[C@]12CCC(=O)C=C1CC[C@@H]1[C@@H]2[C@@H](O)C[C@@]2(C)[C@H]1CC[C@]2(O)C(=O)COS(=O)(=O)O", "note": "[21-sulfate of hydrocortisone]", "values": [{"measurement": "activity in mice", "setting": "mice", "value": "inactive"}]}
{"smiles": "C[C@H]1C[C@@H]2[C@H]([C@@H](O)C[C@@]3(C)[C@H]2CC[C@]3(O)C(=O)COC(=O)CCCCCCCCCCS(=O)(=O)O)[C@@]2(C)C=CC(=O)C=C12", "note": "[Example 2, 6α-Methylprednisolone, 21-(11-sulfohendecanoate), sodium salt]", "values": [{"measurement": "t90% (time for 10% hydrolysis)", "setting": "[1]", "value": 3.0, "unit": "years"}]}
{"smiles": "C[C@H]1C[C@@H]2[C@H]([C@@H](O)C[C@@]3(C)[C@H]2CC[C@]3(O)C(=O)COC(=O)CCCCCS(=O)(=O)O)[C@@]2(C)C=CC(=O)C=C12", "note": "[Example 1, 6α-Methylprednisolone, 21-(6-sulfohexanoate), sodium salt]", "values": [{"measurement": "t90% (time for 10% hydrolysis)", "setting": "[1]", "value": 2.7, "unit": "years"}, {"measurement": "base catalyzed hydrolysis rate in a 0.267 M solution relative to the rate in a 5×10^-4 M solution", "setting": "[2]", "value": "less than one-seventh"}]}
{"smiles": "C[C@]12C=CC(=O)C=C1CC[C@@H]1[C@@H]2C(=O)C[C@@]2(C)[C@H]1CC[C@]2(O)C(=O)CO", "note": "[prednisone]", "values": [{"measurement": "water solubility", "setting": "[3]", "value": "generally poorly water soluble"}]}
